These results are taken from patent publication US8318794B2, “Method of use of porphyrins in preparing a medicament for sonodynamic therapy and a method of sonodynamic therapy using porphyrins” (Science Group Pty. Ltd., priority 2008, dated 2012).

In data set [1] the test system is S-180 sarcoma. The data set is described as follows: Animal Test A: SDT with dihydroporphin e4 in KM mouse S-180 sarcoma model. It counts as in vivo. Particulars: for Average Tumor Weights: 12 days after treatment. As for the experimental part: The sound-sensitive agent, dihydroporphin e4, is prepared according to Chinese Patent No. 99119878.6. The agent is dissolved in water for injection in darkness to give a final concentration of 4 mg/mL. The resultant solution is stored at 4° C. in darkness.
The animal tumor model used in this study was the KM mouse S-180 sarcoma, which is one of the tumor models appointed by the China Food and Drug Administration (CFDA) for new anticancer drug testing. Mouse S-180 sarcoma cell line was commercially available from the Cancer Hospital affiliated to Sun Yat-sen University. The inbred strain of KM mice (female, about 18-20 g body weight) was bred and tested in a laboratory consistent with national standards for new drug tests (the Animal Experimental Centre of Guangzhou Chinese Traditional Medical University). The mouse S-180 sarcoma cell line was injected into and raised in the abdominal cavity of the KM mouse and regenerated 3 times by passing malignant ascites from one mouse to another to confirm their growth is stable.
The ultrasound having a frequency of 1.0 MHz and an adjustable power density in the range of 0.1-2.2 W/cm^2 is applied. The apparatus can emit parallel wave, continuous wave or discontinuous wave.
The ascites with S-180 cell suspension was drawn out from the abdomen of the third passage mouse, and germ-free physiological saline solution was added. The final concentration of the cell suspension was 1×10^7 cells/mL. 0.1 mL of the cell suspension was injected subcutaneously in the right axilla of the mouse to grow a solid tumor.
Three days later, a small mass with the average diameter of about 0.4 cm was seen and palpated on every implanted mouse axilla. These tumor-bearing mice are divided randomly into the following groups with 5 mice in each group: • 1) a blank control group (C); • 2) a ultrasound group (U), which are simply treated with ultrasound (having a frequency of 1.0 MHz and a power density of 1.6 W/cm^2) without injection of the sound-sensitive agent; • 3) a sound-sensitive agent group (E), which are simply injected with the sound-sensitive agent without treatment of ultrasound; • 4) a 0.4 group (EU1), which are injected with the sound-sensitive agent and subsequently treated with ultrasound having a frequency of 1.0 MHz and a power density of 0.4 W/cm^2; • 5) a 0.8 group (EU2), which are treated according to EU1 except using ultrasound having a power density of 0.8 W/cm^2; and • 6) a 1.6 group (EU3), which are treated according to EU1 except using ultrasound having a power density of 1.6 W/cm^2.
To prepare the mice for the experiment, the fur on the tumor-bearing area of the mice was removed with depilatory cream. For the E, EU1, EU2 and EU3 groups, the sound-sensitive agent was injected into each mouse abdominal cavity in a dose of 40 mg/kg in a dark room. The mice are kept in darkness.
Six hours after the injection, each mouse of the EU1, EU2 and EU3 groups and the U group is partially immerged in water with only their head remaining above the water surface. An ultrasound probe was then placed into the water to irradiate the tumor area at the above parameters for 3 minutes. The mice of each group are fed in a conventional way.
After treatment with SDT, primary tumor size were estimated by measuring perpendicular minor dimension (W) and major dimension (L) using sliding calipers every one or two days. Approximate tumor volume was calculated by the formula: W^2L×½.
12 days later, the mice are sacrificed by breaking the cervical vertebrae. The tumor tissues are separated and weighed on an electronic balance to calculate an average weight. Various groups are compared in terms of their respective average tumor weight at the 12th day.
In comparing the tumor weights of various groups, statistic analysis is performed using the Student's t test.

Data set [2] concerns right breast carcinoma, tumor metastasis in liver. Put plainly: Clinical case: SDT with lysine form of tin chlorophyllin. The class given is in vivo, human. Particulars: patient. As for the experimental part: A patient with right breast carcinoma. […] 9, 2007 (see FIG. 5). The lysine form of tin chlorophyllin as indicated in the above animal test B was dissolved in 0.1 mol/L phosphate buffer (pH 7.4) and given to the patient through lingual absorption every day for 2 days. Total dose of the lysine form of tin chlorophyllin was 60 mg. After 24 h, the red light light-emitting diode (LED) was irradiated to the body surface followed by local ultrasound irradiating of the tumour area at the intensities of 2.0 W/cm^2 for 20 minutes in a water bathtub every day for 3 days. One week later, the treatment was repeated. After 3 cycles of SDT treatment with the lysine form of tin chlorophyllin, CT-PET scan on Jan.

For data set [3], the system named is S-180 sarcoma. The data set is described as follows: Animal Test B: SDT with lysine form of tin chlorophyllin in KM mouse S-180 sarcoma model. It counts as in vivo. As for the experimental part: The sound-sensitive agent was the amino acid form of tin chlorophyllin, wherein M is Sn^4+, R1 is a residue of lysine, and R2 is a residue of lysine; the agent was obtained according to the previous process. The agent was dissolved in 0.1 mol/L phosphate buffer (pH 7.2-7.4) in darkness to give a final concentration of 2 mg/mL. The resultant solution was stored at 4° C. in a dark and quiet place.
The same as used in the above Animal Test A.
The same as established in the above Animal Test A.
After four days, touchable tumors with the average diameter of about 0.6 cm are developed subcutaneously at the right axillae of the mice. These tumor-bearing mice are divided randomly into the following groups: • 1) a blank control group (C); • 2) a ultrasound group (U), which are simply treated with ultrasound (having a frequency of 1.0 MHz and a power density of 1.2 W/cm^2) without injection of the sound-sensitive agent; • 3) a sound-sensitive agent group (S), which are simply injected with the sound-sensitive agent without treatment of ultrasound; • 4) a 0.3 group (SU1), which are injected with the sound-sensitive agent and subsequently treated with ultrasound having a frequency of 1.0 MHz and a power density of 0.3 W/cm^2; • 5) a 0.6 group (SU2), which are treated according to SU1 except using ultrasound having a power density of 0.6 W/cm^2; and • 6) a 1.2 group (SU3), which are treated according to SU1 except using ultrasound having a power density of 1.2 W/cm^2.
A depilatory cream is applied to remove fur on the areas to be irradiated. For the S, SU1, SU2 and SU3 groups, the sound-sensitive agent is injected intraperitoneally to each mouse at a dose of 20 mg/kg in a dark room. The mice are then fed in darkness.
6 h after injection, each mouse of the SU1, SU2 and SU3 groups and the U group is partially immerged in water with only their head remaining above the water surface. An ultrasond probe was then placed into the water to irradiate the tumor area at the above parameters for 180 seconds. The mice of each group are fed in a conventional way.
The same as in the above Animal Test A.
15 days later, the mice are sacrificed by breaking the cervical vertebrae. The tumor tissues are separated and weighed on an electronic balance to calculate an average weight. Various groups are compared in terms of their respective average tumor weights at the 15th day.

dihydroporphin e4: the “tumor growth (FIG. 2)” value in the data set on S-180 sarcoma [1] (SDT, ultrasound power density 0.4 W/cm^2-1.6 W/cm^2) is listed as “tumor growth is significantly inhibited”. Moreover, the “Average Tumor Weights” value in the data set with S-180 sarcoma [1] (group E: 40 mg/kg into abdominal cavity, no ultrasound) came to 1.8800 ± 0.3114 g; in the data set on S-180 sarcoma [1] (group EU1: 40 mg/kg into abdominal cavity + ultrasound 1.0 MHz, 0.4 W/cm^2, 3 min, 6 h after injection) it was 0.7600 ± 0.0894 g; in the data set with S-180 sarcoma [1] (group EU2: 40 mg/kg into abdominal cavity + ultrasound 1.0 MHz, 0.8 W/cm^2, 3 min, 6 h after injection) it was 0.5800 ± 0.0837 g; in the data set on S-180 sarcoma [1] (group EU3: 40 mg/kg into abdominal cavity + ultrasound 1.0 MHz, 1.6 W/cm^2, 3 min, 6 h after injection), 0.5200 ± 0.0837 g. Also, the “average tumor volume profile (FIG. 1)” value in the data set on S-180 sarcoma [1] (group E: 40 mg/kg, no ultrasound) is given as “slower increase compared with the blank control group”; in the data set with S-180 sarcoma [1] (group EU3: 40 mg/kg + ultrasound 1.6 W/cm^2), “even slower tumor development”.
For the substance lysine form of tin chlorophyllin, the “Blood Routine and chemistry tests” value in data set [2] (after 3 cycles of SDT) is recorded as “normal result”. Besides, the symptom entry in data set [2] (after 3 cycles of SDT) is recorded as “much improved”. Also, the “CT-PET scan of liver metastasis after 3 cycles of SDT” value in data set [2] (total dose 60 mg by lingual absorption, red LED light + ultrasound 2.0 W/cm^2, 20 min, daily for 3 days per cycle) is “the tumor shrank and the tumor metabolic activity was inhibited”. In addition, the “effect on the tumor (FIG. 4)” value with S-180 sarcoma [3] (SDT, ultrasound power density 0.3 W/cm^2-1.2 W/cm^2) is “killing effect on the tumor”. Moreover, the “Average Tumor Weight” value in the data set with S-180 sarcoma [3] (group S: 20 mg/kg intraperitoneally, no ultrasound, 15 days after treatment) amounted to 0.269 ± 0.331 g; in the data set with S-180 sarcoma [3] (group SU1: 20 mg/kg intraperitoneally + ultrasound 1.0 MHz, 0.3 W/cm^2, 180 s, 6 h after injection, 15 days) it was 0.0435 ± 0.031 g; in the data set with S-180 sarcoma [3] (group SU2: 20 mg/kg intraperitoneally + ultrasound 1.0 MHz, 0.6 W/cm^2, 180 s, 6 h after injection, 15 days), 0.022 ± 0.008 g; in the data set with S-180 sarcoma [3] (group SU3: 20 mg/kg intraperitoneally + ultrasound 1.0 MHz, 1.2 W/cm^2, 180 s, 6 h after injection, 15 days) it was 0.011 ± 0.004 g. For the same substance, the “average tumor volume profile (FIG. 3)” value is “slower increase compared to the blank control group” with S-180 sarcoma [3] (group S: 20 mg/kg, no ultrasound); “hardly increased during the first six days after the SDT treatment, and began to decrease from the 7th day, and noticeably lower at the 15th day than before the test” in the data set on S-180 sarcoma [3] (group SU3: 20 mg/kg + ultrasound 1.2 W/cm^2).
